What was measured:
[1] = tested on: platelets; experiment: Reversible block of in vitro ADP- and collagen-induced aggregation by second messenger effectors; format: cell-based; conditions: agonist (ADP, collagen)-induced
Text: The reversible inhibition induced by this formulation effectively reduces the development of the platelet storage lesion when platelets are cryopreserved. The following is a brief description of the second messenger pathways manipulated in order to control activation of platelets during storage, and the specific inhibitors used to abrogate the initiation of the respective pathways.

[2] = Phase I/II carboplatin study: clinical tolerance, adverse events, anti-TPO antibodies; format: in vivo, humans
[3] = tested on: carboplatin-induced thrombocytopenia; experiment: Phase I/II study of subcutaneous rhTPO prior to and following carboplatin in gynecologic malignancy: hematologic effects; conditions: for Number (%) of Patients Requiring Platelet Transfusions: Cycle-1 (Carboplatin) or Cycle-2 (Carboplatin+ rhTPO)
Text: Carboplatin is effective in advanced-stage platin-sensitive recurrent disease; however, cumulative thrombocytopenia is frequently dose-limiting. […] During dose-escalation phase, rhTPO was given by S.C. injection as a single dose (0.6, 1.2, 2.4, 3.6 mcg/kg) prior to carboplatin and for four doses following a second cycle of carboplatin. […]
The inventor performed a phase I/II study of rhTPO prior to and following carboplatin in 29 patients with advanced gynecologic malignancy. During the dose-escalation phase, rhTPO was administered by subcutaneous injection as a single dose (0.6, 1.2, 2.4, and 3.6 mcg/kg) prior to carboplatin, and for four doses following a second cycle of carboplatin. During dose-expansion phase (n=12). rhTPO was used at the optimal biologic dose only as a secondary prophylaxis for severe thrombocytopenia.
The study included two components, a dose-escalation (safety) component and dose-expansion (activity) component using the optimal dose. During the dose-escalation part of this trial, rhTPO was administered as a single dose by subcutaneous injection 3 weeks before chemotherapy in order to evaluate clinical tolerance and the hematopoietic effects of rhTPO alone. […] Thus Cycle- 1 (chemotherapy alone) served as an internal control for each patient for Cycle-2 (chemotherapy with rhTPO).
At least three patients were entered at each dose level of rhTPO (0.6, 1.2, 2.4, and 3.6 mcg/m^2/d). […] In the subsequent cycles, rhTPO was used at OBD as a secondary prophylaxis by same schedule [days 2, 4, 6, 8 (n=6)] or by a modified schedule [days -1, 1, 3, 5 (n=6)]. The latter schedule was used to assess whether earlier administration of TPO can further augment the degree of protection.
Patients received platelet transfusions for severe thrombocytopenia (i.e. platelet count <20,000/mm^3), RBC transfusions for anemia (i.e. hemoglobin [Hb]<8 gm/dL), and antibiotics for neutropenic fever (i.e. temperature ≥38.3°C and absolute neutrophil count <500/mm^3) or when clinically indicated. The use of G-CSF was not allowed during the first two cycles of chemotherapy, but was allowed in the later cycles (3 - 6) only if clinically indicated (i.e. as a secondary prophylaxis in those patients who experienced prolonged neutropenia or delayed neutrophil recovery).
(§1) Before and during the course of the clinical trial, patients were monitored with complete history, physical examinations, and laboratory tests including complete blood cell counts, serum chemistry, urinalysis, chest X-ray, and electrocardiograph. Blood counts were performed three times a week until the expected nadir period was reached and then daily until the counts had recovered. Serum samples were examined for antibodies reactive to full length TPO three times prior to study and weekly while on study. Positive sera (optical density ratio ≥1.5) were further analyzed by anti-truncated TPO antibody assay, C-mpl blocking assay, and cell-proliferation biologic assay. Patients positive in all assays were considered to be at risk for antibody-induced thrombocytopenia. Bone marrow (BM) aspiration and biopsy were done in all patients before, and one week after rhTPO treatment, and in selected patients at a later time point (day 10 or 14) in the prechemotherapy cycle. Tumor response was evaluated by physical examination, tumor marker (CA-125) evaluation, and imaging studies performed at periodic intervals.
Hematopoietic toxicity from Cycle-1 1 of chemotherapy (no rhTPO) was compared with the results from Cycle-2 (with rhTPO) by means of a paired T test for continuously measured variables.

[4] = tested on: recurrent ovarian cancer; conditions: 800 mg/m^2 without cytokine support, 30 patients (Ozols et al., 1987); cited from earlier work
[5] = tested on: gynecologic malignancy; experiment: Phase I/II carboplatin study: tumor response; format: in vivo, humans; conditions: carboplatin AUC 11 with or without rhTPO, 25 evaluable patients
Procedure: as §1

[6] = Cycle-1 Carboplatin alone or Cycle-2 Carboplatin + rhTPO, n=27
[7] = 22 patients, C-1 (C) or C-2 (C+T), mean ± SEM

Compound: N=C(N)NC(=O)c1nc(Cl)c(N)nc1N [Amiloride]
- effect on in vitro aggregation of platelets [1]: effectively and reversibly blocks

Compound: Nc1ncnc2c1ncn2[C@@H]1O[C@H](CO)[C@@H](O)[C@H]1O [Adenosine]
- effect on in vitro aggregation of platelets [1]: reversibly inhibits

Compound: N.N.O=C([O-])C1(C(=O)[O-])CCC1.[Pt+2] [Carboplatin]
- Fever, number of patients ([2]; Cycle-1 Carboplatin alone n=27 or Cycle-2 Carboplatin + rhTPO n=27): 12
- Anorexia, number of patients [2, 6]: 14
- Anorexia, number of patients experiencing grade ≥3 toxicity [2, 6]: 1
- Bone pain, number of patients [2, 6]: 7
- Chills, number of patients [2, 6]: 8
- Constipation, number of patients [2, 6]: 11
- Constipation, number of patients experiencing grade ≥3 toxicity [2, 6]: 2
- Diarrhea, number of patients [2, 6]: 8
- Diarrhea, number of patients experiencing grade ≥3 toxicity [2, 6]: 1
- Fatigue, number of patients [2, 6]: 12
- Fatigue, number of patients experiencing grade ≥3 toxicity [2, 6]: 10
- Headache, number of patients [2, 6]: 11
- Headache, number of patients experiencing grade ≥3 toxicity [2, 6]: 4
- Mucositis, number of patients [2, 6]: 4
- Myalgia, number of patients [2, 6]: 10
- Nausea, number of patients [2, 6]: 18
- Nausea, number of patients experiencing grade ≥3 toxicity [2, 6]: 3
- Vomiting, number of patients [2, 6]: 12
- Vomiting, number of patients experiencing grade ≥3 toxicity ([2]; Cycle-1 Carboplatin alone, n=27): 1
- Nadir PLT ([3]; 22 patients, all rhTPO doses, C-1 carboplatin alone (C), C-2 carboplatin + rhTPO (C+T), mean ± SEM): 20 ±5 x10^3/mm^3
- No. (%) of PTS transfused ([3]; 22 patients, C-1 (C) or C-2 (C+T)): 11 (50)
- Days PLT <50 × 10^3/mm^3 [3, 7]: 6.3 ±1.0 days
- Days PLT <100 × 10^3/mm^3 [3, 7]: 10.3 ± 1.3 days
- Number (%) of Patients Requiring Platelet Transfusions ([3]; All Patients (0.6 - 3.6 mcg/kg) n=27): 16 (59%)
- Number (%) of Patients Requiring Platelet Transfusions ([3]; Optimal Biologic Dose (1.2 mcg/kg) n=16): 12(75%)
- incidence of thrombocytopenia requiring platelet transfusions ([3]; cycle-1 without rhTPO, secondary prophylaxis patients): 10 of 12
- Major responses [4]: 27%
- major tumor response [5]: 50%

— patent EP1146895B1, “THROMBOPOIETIN COMPOSITIONS FOR INCREASING CIRCULATING PLATELETS” (BOARD OF REGENTS, THE UNIVERSITY OF TEXAS SYSTEM, priority 1999, dated 2000)
